Data reported in US10294202B2, “Pyrrolidinones as herbicides” (FMC Corporation, priority 2013, dated 2019).

Experiments:
bermudagrass = assay: Test C pre-/postemergence herbicide test; format: in vivo, Cynodon dactylon
From the text: Seeds of plant species selected from blackgrass (Alopecurus myosuroides), ryegrass, Italian (Italian ryegrass, Lolium multiflorum), wheat (winter wheat, Triticum aestivum), galium (catchweed bedstraw, Galium aparine), corn (Zea mays), crabgrass, large (large crabgrass, Digitaria sanguinalis), foxtail, giant (giant foxtail, Setaria faberii), johnsongrass (Sorghum halepense), lambsquarters (Chenopodium album), morningglory (Ipomoea coccinea), nutsedge, yellow (yellow nutsedge, Cyperus esculentus), pigweed (Amaranthus retroflexus), ragweed (common ragweed, Ambrosia elatior), soybean (Glycine max), barnyardgrass (Echinochloa crus-galli), oilseed rape (Brassica napus), waterhemp (common waterhemp, Amaranthus rudis), kochia (Kochia scoparia), oat, wild (wild oat, Avena fatua), surinam grass (Brachiaria decumbens), foxtail, green (green foxtail, Setaria viridis), goosegrass (Eleusine indica), bromegrass, downy (downy bromegrass, Bromus tectorum), nightshade (eastern black nightshade, Solanum ptycanthum), cocklebur (common cocklebur, Xanthium strumarium), cupgrass, woolly (woolly cupgrass, Eriochloa villosa), bermudagrass (Cynodon dactylon), sunflower, (common oilseed sunflower, Helianthus annuus), Russian thistle (Salsola kali) and velvetleaf (Abutilon theophrasti) were planted into a blend of loam soil and sand and treated preemergence with test chemicals formulated in a non-phytotoxic solvent mixture which included a surfactant. At the same time, plants selected from these crop and weed species and also barley (winter barley, Hordeum vulgare), […]), chickweed (common chickweed, Stellaria media), deadnettle (henbit deadnettle, Lamium amplexicaule), and canarygrass (littleseed canarygrass, Phalaris minor) were planted in pots containing Redi-Earth® planting medium (Scotts Company, 14111 Scottslawn Road, Marysville, Ohio 43041) comprising spaghnum peat moss, vermiculite, wetting agent and starter nutrients and treated with postemergence applications of test chemicals formulated in the same manner. Plants ranged in height from 2 to 18 cm (1- to 4-leaf stage) for postemergence treatments. Treated plants and controls were maintained in a greenhouse for 13 to 15 days, after which time all species were compared to controls and visually evaluated. Plant response ratings, summarized in Table C, are based on a scale of 0 to 100 where 0 is no effect and 100 is complete control. A dash (-) response means no test result.

wheat, spring = assay: Test D pre-/postemergence herbicide test; format: in vivo, Triticum aestivum; conditions: for Plant response rating, Wheat, Spring: Preemergence, scale 0 to 100 (0 no effect, 100 complete control); for Plant response rating: Postemergence, Wheat, Spring, scale 0 to 100
Summary of the method: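 Visual injury score, 0 (no effect) to 100 (complete control), taken 7–21 d post-treatment against untreated controls. Application was preemergence in silt loam and postemergence at 1- to 4-leaf stage, using a surfactant-containing non-phytotoxic solvent formulation.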

galium = assay: Test D pre-/postemergence herbicide test; format: in vivo, Galium aparine; conditions: for Plant response rating, Galium: scale 0 to 100 (0 no effect, 100 complete control); for Plant response rating: Galium, scale 0 to 100
From the text: Seeds of plant species selected from bluegrass (annual bluegrass, Poa annua), blackgrass (Alopecurus myosuroides), canarygrass (littleseed canarygrass, Phalaris minor), chickweed (common chickweed, Stellaria media), galium (catchweed bedstraw, Galium aparine), bromegrass, downy (downy bromegrass, Bromus tectorum), field poppy (Papaver rhoeas), field violet (Viola arvensis), foxtail, green (green foxtail, Setaria viridis), deadnettle (henbit deadnettle, Lamium amplexicaule), ryegrass, Italian (Italian ryegrass, Lolium multiflorum), kochia (Kochia scoparia), lambsquarters (Chenopodium album), oilseed rape (Brassica napus), pigweed (Amaranthus retroflexus), chamomile (scentless chamomile, Matricaria inodora), Russian thistle (Salsola kali), speedwell (bird's-eye speedwell, Veronica persica), barley, spring (spring barley, Hordeum vulgare), wheat, spring (spring wheat, Triticum aestivum), buckwheat, wild (wild buckwheat, Polygonum convolvulus), mustard, wild (wild mustard, Sinapis arvensis), oat, wild (wild oat, Avena fatua), radish, wild (wild radish, Raphanus raphanistrum), […]), barley, winter (winter barley, Hordeum vulgare), and wheat, winter (winter wheat, Triticum aestivum) were planted into a silt loam soil and treated preemergence with test chemicals formulated in a non-phytotoxic solvent mixture which included a surfactant. At the same time, these species were planted in pots containing Redi-Earth® planting medium (Scotts Company, 14111 Scottslawn Road, Marysville, Ohio 43041) comprising spaghnum peat moss, vermiculite, wetting agent and starter nutrients and treated with postemergence applications of the test chemicals formulated in the same manner. Plants ranged in height from 2 to 18 cm (1- to 4-leaf stage). Treated plants and controls were maintained in a controlled growth environment for 7 to 21 days after which time all species were compared to controls and visually evaluated. Plant response ratings, summarized in Table D, are based on a scale of 0 to 100 where 0 is no effect and 100 is complete control. A dash (-) response means no test result.

[1] = Postemergence, 31 g ai/ha, scale 0 (no effect) to 100 (complete control)
[2] = Postemergence, 62 g ai/ha, scale 0 to 100 (0 no effect, 100 complete control)
[3] = Postemergence, 125 g ai/ha, scale 0 to 100 (0 no effect, 100 complete control)
[4] = Preemergence, 62 g ai/ha, scale 0 to 100
[5] = Preemergence, 125 g ai/ha, scale 0 to 100 (0 no effect, 100 complete control)
[6] = Preemergence, 31 g ai/ha, scale 0 to 100 (0 no effect, 100 complete control)
[7] = Preemergence, 250 g ai/ha, scale 0 to 100 (0 no effect, 100 complete control)
[8] = Postemergence, 250 g ai/ha, scale 0 to 100 (0 no effect, 100 complete control)

Structure (SMILES)	Plant response rating, Bermudagrass (bermudagrass; [1])	Plant response rating, Bermudagrass (bermudagrass; [2])	Plant response rating, Bermudagrass (bermudagrass; [3])	Plant response rating, Bermudagrass (bermudagrass; [4])	Plant response rating, Bermudagrass (bermudagrass; [5])	Bermudagrass plant response rating (bermudagrass; [6])	Plant response rating, Wheat, Spring (wheat, spring; 62 g ai/ha)	Plant response rating, Wheat, Spring (wheat, spring; 125 g ai/ha)	Plant response rating, Wheat, Spring (wheat, spring; 31 g ai/ha)	Plant response rating, Wheat, Spring (wheat, spring; 250 g ai/ha)	Plant response rating, Galium (galium; Preemergence, 62 g ai/ha)	Plant response rating, Galium (galium; Preemergence, 31 g ai/ha)	Plant response rating (galium; Preemergence, 125 g ai/ha)	Plant response rating (galium; Preemergence, 250 g ai/ha)	Plant response rating (wheat, spring; 31 g ai/ha)	Plant response rating (wheat, spring; 62 g ai/ha)	Plant response rating (wheat, spring; 125 g ai/ha)	Plant response rating (galium; Postemergence, 31 g ai/ha)	Plant response rating (galium; Postemergence, 62 g ai/ha)	Plant response rating (galium; Postemergence, 125 g ai/ha)	further results
O=C1NCC(c2ccc(F)c(Cl)c2)C1C(=O)Nc1ccccc1F (stereo not drawn) [Compound 60]	0	0	0	0	0	0															
O=C1NCC(c2ccc(F)c(C(F)(F)F)c2)C1C(=O)Nc1cccc(F)c1F (racemic) [Compound 77]							10	20	10	25	55	35	85	85							
O=C1NCC(c2ccc(C(F)(F)F)cc2)C1C(=O)Nc1ccccc1F (stereo not drawn) [Compound 231]							5	0	0	20	40	20		40	0	0	0	40	45	55	Plant response rating (wheat, spring; 250 g ai/ha): 0; Plant response rating (galium; Postemergence, 250 g ai/ha): 55; Plant response rating, Galium (galium; Preemergence, 125 g ai/ha): 35
O=C1NCC(c2cc(F)c(F)c(F)c2)C1C(=O)Nc1cccc(F)c1F (stereo not drawn) [Compound 48]	0	0	10	0	0	0															Plant response rating, Bermudagrass (bermudagrass; Postemergence, 16 g ai/ha, scale 0 to 100 (0 no effect, 100 complete control)): 0; Plant response rating, Bermudagrass (bermudagrass; Preemergence, 16 g ai/ha, scale 0 to 100): 0
O=C1NCCC1C(=O)N(c1ccc(F)c(F)c1)c1ccccc1F (stereo not drawn) [Compound 5, N-(3,4-difluorophenyl)-N-(2-fluorophenyl)-2-oxo-3-pyrrolidinecarboxamide]				0	20	0															Plant response rating, Bermudagrass (bermudagrass; [7]): 45
O=C1NCC(c2ccc(Cl)c(F)c2)C1C(=O)Nc1cccc(F)c1F (stereo not drawn) [Compound 52]	0	0	0	40	40	0	0	0	0	0	0	0	0	20	0	0	0	0	0	25	Plant response rating, Bermudagrass (bermudagrass; [8]): 10; Plant response rating, Bermudagrass (bermudagrass; [7]): 65; Plant response rating (wheat, spring; 16 g ai/ha): 0; Plant response rating (wheat, spring; 250 g ai/ha): 0; Plant response rating, Wheat, Spring (wheat, spring; 16 g ai/ha): 0; Plant response rating (galium; Postemergence, 16 g ai/ha): 0; Plant response rating (galium; Postemergence, 250 g ai/ha): 35; Plant response rating, Galium (galium; Preemergence, 16 g ai/ha): 0
O=C1NCC(c2ccc(F)c(F)c2)C1C(=O)Nc1ccccc1C(F)(F)F (racemic) [Compound 6]							0	0	0	0	50	0	100	100	0	5	5	0	0	0	Plant response rating (wheat, spring; 16 g ai/ha): 0; Plant response rating (wheat, spring; 250 g ai/ha): 5; Plant response rating, Wheat, Spring (wheat, spring; 16 g ai/ha): 0; Plant response rating (galium; Postemergence, 16 g ai/ha): 0; Plant response rating (galium; Postemergence, 250 g ai/ha): 0; Plant response rating, Galium (galium; Preemergence, 16 g ai/ha): 0
O=C1NCC(c2cc(F)c(F)cc2F)C1C(=O)Nc1cccc(F)c1F (stereo not drawn) [Compound 50]	0	0	0				0	0	0		0	0	0		0	0	0	0	0	0	Plant response rating, Bermudagrass (bermudagrass; [8]): 0; Plant response rating (wheat, spring; 16 g ai/ha): 0; Plant response rating, Wheat, Spring (wheat, spring; 16 g ai/ha): 0; Plant response rating (galium; Postemergence, 16 g ai/ha): 0; Plant response rating, Galium (galium; Preemergence, 16 g ai/ha): 0
O=C1NCC(c2cccc(OC(F)(F)F)c2)C1C(=O)Nc1ccccc1F (stereo not drawn) [Compound 69]				35	50																Bermudagrass plant response rating (bermudagrass; Preemergence, 31 g ai/ha, scale 0 to 100, 0 is no effect and 100 is complete control): 35; Plant response rating (scale of 0 to 100), Bermudagrass (bermudagrass; Preemergence, 250 g ai/ha): 55
